How the values were obtained:
[1] = tested on: HepG2 cells; test: MTT antitumour assay, HepG2; type: cell-based; conditions: human hepato-cellular carcinoma cell line, mean ± SD, n = 3
Procedure: (§1) The evaluation of the antitumour activity was performed using tetrazolium salt MTT (3-(4,5-dimethyl-2-thiazolyl)-2,5-diphenyl-2H-tetrazolium bromide) assay as reported[62]^,[63].
(§2) The designed compounds were evaluated for their in vitro antitumour effects via the standard 3-(4,5-dimethylthiazol-2-yl)-2,5-diphenyltetrazolium bromide (MTT) method against a panel of four human tumour cell lines; namely, hepatocellular carcinoma cell line (HepG2), breast cancer cell line (MCF-7), human cervical cancer cell line (HeLa), and prostate cancer cell line (PC-3)[62]^,[63]^,[72]. The antitumour activities of the designed compounds 4–12, along with that of the reference drugs 5-FU and afatinib are shown in Table 1.

[2] = tested on: MCF-7 cells; test: MTT antitumour assay, MCF-7; type: cell-based; conditions: MCF7, human breast adenocarcinoma cell line, mean ± SD, n = 3
Procedure: as §1, §2

[3] = tested on: HeLa cells; test: MTT antitumour assay, HeLa; type: cell-based; conditions: human cervical epithelioid carcinoma cell line, mean ± SD, n = 3
Procedure: as §1
as §2, with “(PC-3)[62]^,[63]^,[72].” for “(PC-3)[62]^,[63]^,[72]. The antitumour activities of the designed compounds 4–12, along with that of the reference drugs 5-FU and afatinib are shown in Table 1.”

[4] = tested on: PC-3 cells; test: MTT antitumour assay, PC-3; type: cell-based; conditions: PC-3; MTT; human prostate cancer cell line; mean ± SD, n = 3
Procedure: as §1, §2

[5] = ABTS radical cation scavenging (antioxidant) assay; conditions: 20 µl of 1 mg/ml test sample (L-ascorbic acid 20 µl, 2 mM)
Procedure: The absorbance (Acontrol) of a green-blue solution (ABTS^+ radical solution) resulted from a mixture of ABTS and manganese dioxide (MnO2) and was recorded at λmax 734 nm, according to the reported procedure[64]^,[65]. The absorbance (Atest) was measured upon the addition of 20 µl of 1 mg/ml solution of the test sample in spectroscopic grade methanol/phosphate buffer (1:1 v/v) to the ABTS solution. The decrease in absorbance is expressed as % inhibition, which can be calculated from the following equation: % inhibition = Acontrol-Atest/Acontrol×100.
L-Ascorbic acid 20 µl (2 mM) solution was used as standard antioxidant (positive control). A blank sample was run using only methanol/phosphate buffer (1:1), while the negative control was run with ABTS and the methanol/phosphate buffer.
The assay is based on measuring the ability of the tested compounds to scavenge the long-life radical cation of ABTS[22]^,[43]^,[64]^,[65].

IC50 [1] [µM] | IC50 [2] [µM] | IC50 [3] [µM] | IC50 [4] [µM] | melting point [°C] | SMILES | %Inhibition of the ABTS radical cation [5] [%]
18.9 ± 1.35 | 29.3 ± 1.97 | 16.2 ± 1.36 | 12.7 ± 1.13 | 145 to 146 | Cc1ccc(C2=NNC(c3ccc(OC4CCCC4)cc3)C2)cc1 (centres unmarked) [8a, 5-(4-(Cyclopentyloxy)phenyl)-3-(4-methylphenyl)-4,5-dihydro-1H-pyrazole] | 53.0
30.8 ± 2.07 | 48.1 ± 3.25 | 66.8 ± 4.07 | 69.4 ± 4.32 | > 300 | O=C(O)c1cc(C=Cc2ccc(OC3CCCC3)cc2)nc2ccc(F)cc12 [12b, 2-(4-(Cyclopentyloxy)styryl)-6-fluoroquinoline-4-carboxylicacid] | 50.0
62.3 ± 4.1 | 58.4 ± 4.5 | 46.2 ± 3.3 | 50.1 ± 3.55 | 120 to 122 | Cc1ccc(C2=NOC(c3ccc(OC4CCCC4)cc3)C2)cc1 (centres unmarked) [compound 9, 5-(4-(cyclopentyloxy)phenyl)-3-(4-methylphenyl)-4,5-dihydroisoxazole] | 60.0
92.9 ± 5.82 | 97.3 ± 5.51 | 62.4 ± 3.8 | 87.7 ± 5.41 | 272 to 273 | Cc1ccc(-c2cc(-c3ccc(OC4CCCC4)cc3)c(C#N)c(N)n2)cc1 [compound 11, 2-amino-4-(4-(cyclopentyloxy)phenyl)-6-(4-methylphenyl)nicotinonitrile] | 
